Test system: Colo205 human colon carcinoma cell line
Assay: In vitro tumor cell proliferation assay (MTS, CellTiter 96 Aqueous One Solution)
Assay type: cell-based
Conditions: COLO 205, Colo205 cells, 72 hours compound exposure, MTS absorbance at 490 nm, read-out: IC50 (concentration of test compound required to inhibit proliferation of 50% of the cells)
Procedure, shortened: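 Colo205 cells seeded at 2000 cells/well in RPMI-1640 with 10% serum, exposed to compound for 72 h at 37 °C, 5% CO2, in a 5-point dose-response up to 10-20 μM. Viability read by MTS absorbance at 490 nm; IC50 from background-corrected percent inhibition by linear regression.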

**Q.** `O=C(O)c1cn(-c2cccc(CN3CCCCC3)c2)c2c(OC(F)(F)F)c(N3CCN(c4ncccn4)CC3)c(F)cc2c1=O` [Example 143, 6-fluoro-4-oxo-1-[3-(piperidin-1-yl-methyl)phenyl]-7-(4-pyrimidin-2-ylpiperazin-1-yl)-8-(trifluoromethoxy)-1,4-dihydroquinoline-3-carboxylic acid] was tested. Which IC50 did it give?
**A.** Its IC50 is 500 to 2000 nM.

**Q.** Which IC50 does the source give for `N#Cc1cccnc1N1CCN(c2c(F)cc3c(=O)c(C(=O)O)cn(-c4ccc(CN5CCCC5)cc4)c3c2OC(F)(F)F)CC1` [Example 125, 7-[4-(3-cyanopyridin-2-yl)piperazin-1-yl]-6-fluoro-4-oxo-1-[4-(pyrrolidin-1-ylmethyl)phenyl]-8-(trifluoromethoxy)-1,4-dihydroquinoline-3-carboxylic acid] here?
**A.** Its IC50 is less than 500 nM.

**Q.** `O=C(O)c1cn(-c2ccc(CN3CCCC3)cc2F)c2c(Cl)c(N3CCN(c4ncccn4)CC3)c(F)cc2c1=O` [Example 40, 8-chloro-6-fluoro-1-[2-fluoro-4-(pyrrolidin-1-ylmethyl)phenyl]-4-oxo-7-(4-pyrimidin-2-ylpiperazin-1-yl)-1,4-dihydroquinoline-3-carboxylic acid] was tested. Which IC50 did it give?
**A.** The IC50 was less than 500 nM.

**Q.** For `COc1c(N2CCN(c3ccccc3SC)CC2)c(F)cc2c(=O)c(C(=O)O)cn(-c3ccc(CN4CCCC4)cc3)c12` [Example 88, 6-fluoro-8-methoxy-7-{4-[2-(methylthio)phenyl]-piperazin-1-yl}-4-oxo-1-[4-(pyrrolidin-1-ylmethyl)phenyl]-1,4-dihydroquinoline-3-carboxylic acid], which IC50 is on record?
**A.** The IC50 was less than 500 nM.

**Q.** `O=C(O)c1cn(-c2ccc(CNC3CCCC3Cl)cc2)c2c(Cl)c(N3CCN(c4ccccn4)CC3)c(F)cc2c1=O` (stereo not shown) [Example 173, 8-chloro-1-{4-[(2-chloro-cyclopentylamino)-methyl]-phenyl}-6-fluoro-4-oxo-7-(4-pyridin-2-yl-piperazine-1-yl)-1,4-dihydro-quinoline-3-carboxylic acid] was tested. Which IC50 did it give?
**A.** Its IC50 is 500 to 2000 nM.

**Q.** Which IC50 does the source give for `O=C(O)c1cn(-c2ccc(CN3CCCC3)cc2F)c2c(Cl)c(N3CCN(c4ccccn4)CC3)c(F)cc2c1=O` [Example 46, 8-chloro-6-fluoro-1-[2-fluoro-4-(pyrrolidin-1-ylmethyl)phenyl]-4-oxo-7-(4-pyridin-2-ylpiperazin-1-yl)-1,4-dihydroquinoline-3-carboxylic acid] here?
**A.** Its IC50 is 500 to 2000 nM.

**Q.** `O=C(O)c1cn(-c2ccc(CNC3CCC3)cc2)c2c(Cl)c(N3CCN(c4ccccn4)CC3)c(F)cc2c1=O` [Example 58, 8-chloro-1-{4-[(cyclobutylamino)methyl]-phenyl}-6-fluoro-4-oxo-7-(4-pyridin-2-ylpiperazin-1-yl)-1,4-dihydroquinoline-3-carboxylic acid] was tested. Which IC50 did it give?
**A.** Its IC50 is less than 500 nM.

**Q.** With `CCOc1ccccc1N1CCN(c2c(F)cc3c(=O)c(C(=O)O)cn(-c4ccc(CN5CCCC5)cc4)c3c2Cl)CC1` [Example 16, 8-chloro-7-[4-(2-ethoxyphenyl)piperazin-1-yl]-6-fluoro-4-oxo-1-[4-(pyrrolidin-1-ylmethyl)phenyl]-1,4-dihydroquinoline-3-carboxylic acid] as the compound, how does the IC50 read?
**A.** The IC50 was 500 to 2000 nM.

**Q.** Which IC50 does the source give for `CN(C)CCc1ccc(-n2cc(C(=O)O)c(=O)c3cc(F)c(N4CCN(c5ncccn5)CC4)c(Cl)c32)cc1` [Example 71, 8-chloro-1-{4-[2-(dimethylamino)ethyl]phenyl}-6-fluoro-4-oxo-7-(4-pyrimidin-2-ylpiperazin-1-yl)-1,4-dihydroquinoline-3-carboxylic acid] here?
**A.** Its IC50 is 2000 to 20000 nM.

**Q.** How did the IC50 turn out when `CCN(C)Cc1ccc(-n2cc(C(=O)O)c(=O)c3cc(F)c(N4CCN(c5ccc(Cl)cc5)CC4)c(OC(F)(F)Cl)c32)cc1` [Example 168, 8-[chloro(difluoro)methoxy]-7-[4-(4-chlorophenyl)piperazin-1-yl]-1-(4-{[ethyl(methyl)amino]methyl}phenyl)-6-fluoro-4-oxo-1,4-dihydroquinoline-3-carboxylic acid] was run?
**A.** Its IC50 is less than 500 nM.

**Q.** How did the IC50 turn out when `N#Cc1ccc(N2CCN(c3c(F)cc4c(=O)c(C(=O)O)cn(-c5ccc(CN6CCCC6)cc5F)c4c3Cl)CC2)nc1` [Example 47, 8-chloro-7-[4-(5-cyanopyridin-2-yl)piperazin-1-yl]-6-fluoro-1-[2-fluoro-4-(pyrrolidin-1-ylmethyl)phenyl]-4-oxo-1,4-dihydroquinoline-3-carboxylic acid] was run?
**A.** The IC50 was 500 to 2000 nM.

**Q.** Which IC50 does the source give for `O=C(O)c1cn(-c2ccc(CN3CC[C@@H](O)C3)cc2)c2c(Cl)c(N3CCN(c4ccc(F)cc4)CC3)c(F)cc2c1=O` [Example 31, 8-chloro-6-fluoro-7-[4-(4-fluorophenyl)-piperazin-1-yl]-1-(4-{[(3R)-3-hydroxypyrrolidin-1-yl]methyl}phenyl)-4-oxo-1,4-dihydroquinoline-3-carboxylic acid] here?
**A.** Its IC50 is less than 500 nM.

**Q.** How did the IC50 turn out when `N#Cc1ccccc1N1CCN(c2c(F)cc3c(=O)c(C(=O)O)cn(-c4ccc(CN5CCCC5)cc4)c3c2Cl)CC1` [Example 4, 8-chloro-6-fluoro-7-[4-(2-cyanophenyl)-piperazin-1-yl]-4-oxo-1-[4-(pyrrolidin-1-ylmethyl)phenyl]1,4-dihydroquinoline-3-carboxylic acid] was run?
**A.** The IC50 was less than 500 nM.

**Q.** For `O=C(O)c1cn(-c2ccc(CN3CC[C@H](O)C3)cc2)c2c(Cl)c(N3CCN(c4ncccn4)CC3)c(F)cc2c1=O` [Example 27, 8-chloro-6-fluoro-1-(4-{[(3S)-3-hydroxy-pyrrolidin-1-yl]methyl}phenyl)-4-oxo-7-(4-pyrimidin-2-ylpiperazin-1-yl)-1,4-dihydroquinoline-3-carboxylic acid], which IC50 is on record?
**A.** The IC50 was less than 500 nM.

**Q.** `CON(C)Cc1ccc(-n2cc(C(=O)O)c(=O)c3cc(F)c(N4CCN(c5ccc(Cl)cc5)CC4)c(Cl)c32)cc1` [Example 52, 8-chloro-7-[4-(4-chlorophenyl)piperazin-1-yl]-6-fluoro-1-(4-{[methoxy(methyl)amino]methyl}phenyl)-4-oxo-1,4-dihydroquinoline-3-carboxylic acid] was tested. Which IC50 did it give?
**A.** Its IC50 is 2000 to 20000 nM.

**Q.** For `CON(C)Cc1ccc(-n2cc(C(=O)O)c(=O)c3cc(F)c(N4CCN(c5ncccn5)CC4)c(Cl)c32)cc1` [Example 50, 8-chloro-6-fluoro-1-(4-{[methoxy(methyl)-amino]methyl}phenyl)-4-oxo-7-(4-pyrimidin-2-ylpiperazin-1-yl)-1,4-dihydroquinoline-3-carboxylic acid], which IC50 is on record?
**A.** The IC50 was 2000 to 20000 nM.

**Q.** How did the IC50 turn out when `CCN(CC)Cc1ccc(-n2cc(C(=O)O)c(=O)c3cc(F)c(N4CCN(c5ccccc5C#N)CC4)c(OC)c32)cc1` [Example 117, 7-[4-(2-cyanophenyl)piperazin-1-yl]-1-{4-[(diethylamino)methyl]phenyl}-6-fluoro-8-methoxy-4-oxo-1,4-dihydroquinoline-3-carboxylic acid] was run?
**A.** Its IC50 is less than 500 nM.

**Q.** Which IC50 does the source give for `CCN(CC)Cc1ccc(-n2cc(C(=O)O)c(=O)c3cc(F)c(N4CCN(c5ccc(Cl)cc5)CC4)c(OC)c32)cc1` [Example 118, 7-[4-(4-chlorophenyl)piperazin-1-yl]-1-{4-[(diethylamino)methyl]phenyl}-6-fluoro-8-methoxy-4-oxo-1,4-dihydroquinoline-3-carboxylic acid] here?
**A.** The IC50 was less than 500 nM.

**Q.** Which IC50 does the source give for `CCN(C)Cc1ccc(-n2cc(C(=O)O)c(=O)c3cc(F)c(N4CCN(c5ccc(F)cc5)CC4)c(OC(F)(F)Cl)c32)cc1` [Example 167, 8-[chloro(difluoro)methoxy]-1-(4-{[ethyl(methyl)amino]methyl}phenyl)-6-fluoro-7-[4-(4-fluorophenyl)piperazin-1-yl]-4-oxo-1,4-dihydroquinoline-3-carboxylic acid] here?
**A.** The IC50 was less than 500 nM.

From patent US20070213339A1 (Bayer Pharmaceuticals Corporation, priority 2004, published 2007)
